Read-outs that look alike come from different tables or passages of the source.
What was measured:
human OPRM1 (μ, MOR) [1] = molecular target: T1, human OPRM1 (μ, MOR) (Homo sapiens (Human), UniProt P35372); assay: cell-based; assay type: cell-based; conditions: for EC50: PathHunter human OPRM1 Arrestin CHO-K1 cell line, read-out: β-Arrestin EC50; for Emax: OPRM1, read-out: β-Arrestin Emax
Protocol: The technology is based on Enzyme Fragment Complementation (EFC) with β-galactosidase (β-Gal) as the reporter. […] EA is fused to β-arrestin-2, and ED is fused to the C-terminus of the GPCR of interest. When a ligand binds and the GPCR is activated, β-arrestin-2 is recruited to the receptor resulting in an ED/EA complementation, restoring β-Gal activity, which is measured using chemiluminescence. For this assay, the PathHunter human OPRM1 (μ, MOR) Arrestin CHO-K1 cell line was used.

human OPRM1 (μ, MOR) [2] = molecular target: T1, human OPRM1 (μ, MOR); assay: cell-based; assay type: cell-based; conditions: for EC50: PathHunter human OPRM1 Arrestin CHO-K1 cell line, read-out: cAMP EC50; for Emax: OPRM1, read-out: cAMP Emax
Protocol: G-protein signaling was measured via second messenger cAMP modulation. Detection of cAMP modulation was accomplished in the PathHunter human OPRM1 (μ, MOR) Arrestin CHO-K1 cell line using the Dynamic2 cAMP Kit from Cisbio.

MOR [3] = molecular target: T2, MOR (Homo sapiens (Human), UniProt P35372); assay type: cell-based; conditions: for ΔRA of compound: β-arrestin vs cAMP, from EC50 and Emax
Protocol: In certain embodiments, the ability of a compound to activate G-protein or β-arrestin is not an on/off switch for a given pathway, but rather a continuous function. To capture this, each compound is measured for activity in cell assays that are linked to β-arrestin recruitment and G-protein signaling. By comparing the activity between these two measures (accounting for both EC50 and maximal response reached, Emax) a relative activity (RA) value is determined.
In the case of MOR it is desirable to have high activation of the G-protein pathway while reducing activation of β-arrestin.

[4] = Respiratory depression test (O2 partial pressure); conditions: rat, SC, at 30 minutes, vehicle 96 mm Hg
tail flick response = assay: Rat tail flick nociceptive pain model; assay type: in vivo; conditions: SC
Protocol: In rodents, the tail flick response to radiant heat is commonly used as a model to detect potentially useful analgesic agents.
Procedurally, the time (seconds) required to elicit a tail flick response induced by focused radiant heat is measured as the pain threshold in groups of 8 Sprague-Dawley (SD) male rats weighing 110±20 g. Prolongation by 50 percent or more (≥50) of the time required to elicit a tail flick response 15 and 30 minutes following administration of test substance indicates possible analgesic activity. Also, one-way ANOVA followed by Dunnett's test is applied for comparison between vehicle control and treatment groups.

place preference = assay: Conditioned place preference; conditions: rat, SC
Excerpt: Although a number of different designs and apparatuses are used in this model, the basic characteristics of this task involve the association of a particular environment with drug treatment, followed by the association of a different environment with the absence of the drug (i.e., the drug's vehicle). A common variation of this design consists of a three-compartment chamber with the outer compartments being designed to have different characteristics (e.g., white vs. black walls, pine vs. corn bedding, horizontal grid vs. cross-grid flooring). […] On the following day, the rat is injected with the drug's vehicle and then placed in the opposite compartment. […] Afterward, a test session is conducted, which consists of placing the animal in the center compartment and then, after opening the gates to both of the outer compartments, recording the time the animal spends in each of the outer compartments during the session.
In certain embodiments, there are three days of adaptation where any preferences are assessed. Then, compartment assignments for drug or saline are based on any existing preferences. […] There are 8 days of training followed by the test day when both compartments are accessible and the computer counts how much time is spent in the respective compartment.

intestinal transit = assay: Gastrointestinal motility (charcoal transit); conditions: rat, SC
Protocol: At 30 minutes post subcutaneous dosing, the animals were given a suspension of 5% charcoal in 10% gum arabic solution (2 ml/animal p.o.) and sacrificed 15 minutes later. The intestine was removed, and the length of the gut in cm (GL) as well as extent of charcoal movement from the pylorus to the beginning of the charcoal column in cm (CP) was measured.
Intestinal transit (IT) was calculated as IT=(CP/GL)×100%. A 30% or more (30) increase or decrease intestinal transit (IT), relative to the vehicle control group, was considered significant. The values in animals treated with test compounds compared with vehicle control group were also analyzed by using one-way ANOVA followed by Dunnett's test. Differences are considered statistically significant at P<0.05.

sedation = assay: Accelerating RotaRod (sedation); conditions: rat, SC
MOR [5] = molecular target: T2, MOR; conditions: cell-based assays; cited from earlier work
[6] = healthy volunteers; cited from earlier work
[7] = patients following bunionectomy; cited from earlier work
MOR [8] = molecular target: T2, MOR; conditions: vs morphine; cited from earlier work

Compound | EC50 (human OPRM1 (μ, MOR) [1]) [nM] | EC50 (human OPRM1 (μ, MOR) [2]) [nM] | Bias Factor (ΔRA of compound relative to ΔRA of DAMGO) × 10 (MOR [3]) | ΔRA of compound (MOR [3]) | Emax (human OPRM1 (μ, MOR) [1]) [%] | Emax (human OPRM1 (μ, MOR) [2]) [%] | further results
CN(C)C[C@H]1CN(Cc2ccc(F)cc2Cl)CC[C@]1(O)c1cccc(C(N)=O)c1 (single isomer, unassigned; ent-a) [Ent-A-syn-(6)] | 3170 | 163 | −0.92 | −1.63 | – | – | β-Arrestin Emax (human OPRM1 (μ, MOR) [1]): 60%; cAMP Emax (human OPRM1 (μ, MOR) [2]): 132%
CN(C)C[C@@H]1CN(Cc2ccc(F)cc2Cl)CC[C@@]1(O)c1cccc(C(N)=O)c1 (single isomer, unassigned; ent-b) [Ent-B-syn-(6), Ent-B-syn 3-(1-(2-chloro-4-fluorobenzyl)-3-((dimethylamino)methyl)-4-hydroxypiperidin-4-yl)benzamide] | 3670 | 463 | −1.06 | −1.65 | – | – | β-Arrestin Emax (human OPRM1 (μ, MOR) [1]): 20%; cAMP Emax (human OPRM1 (μ, MOR) [2]): 111%
CN(C)CC1CN(Cc2ccc(F)cc2Cl)CCC1(O)c1cccc(C(N)=O)c1 (centres unmarked) [(6), 3-[1-(2-Chloro-4-fluoro-benzyl)-3-dimethylaminomethyl-4-hydroxy-piperidin-4-yl]-benzamide] | 2560 | 102 | −2.89 | −1.83 | 40 | 107 | –
CN(C)CC1CN(CCc2ccccc2)CCC1(O)c1cccc(C(N)=O)c1 (centres unmarked) [(9), 3-(3-Dimethylaminomethyl-4-hydroxy-1-phenethyl-piperidin-4-yl)-benzamide] | 830 | 34 | −6.76 | −2.22 | 18 | 118 | –
CN(C)CC1CN(Cc2ccsc2)CCC1(O)c1cccc(C(N)=O)c1 (centres unmarked) [(11), 3-(3-Dimethylaminomethyl-4-hydroxy-1-thiophen-3-ylmethyl-piperidin-4-yl)-benzamide] | 10700 | 550 | −2.31 | −1.77 | 37 | 112 | –
CN(C)CC1CN(CCc2ccsc2)CCC1(O)c1cccc(C(N)=O)c1 (centres unmarked) [(15), 3-(3-((Dimethylamino)methyl)-4-hydroxy-1-(2-(thiophen-3-yl)ethyl)piperidin-4-yl)benzamide] | > 100000 | 67 | – | – | < 10 | 95 | –
COc1ccc(CCN2CCC(O)(c3cccc(C(N)=O)c3)C(CN(C)C)C2)cc1 (centres unmarked) [(17), 3-(3-((Dimethylamino)methyl)-4-hydroxy-1-(4-methoxyphenethyl)piperidin-4-yl)benzamide] | > 100000 | 467 | – | – | < 10 | 84 | –
CN(C)CC1CN(CCc2ccc(O)cc2)CCC1(O)c1cccc(C(N)=O)c1 (centres unmarked) [(18), 3-(3-((Dimethylamino)methyl)-4-hydroxy-1-(4-hydroxyphenethyl)piperidin-4-yl)benzamide] | 3100 | 160 | −3.73 | −1.91 | 24 | 103 | –
CN(C)CC1CN(CCCc2ccccc2)CCC1(O)c1cccc(C(N)=O)c1 (centres unmarked) [(20), 3-[3-Dimethylaminomethyl-4-hydroxy-1-(3-phenyl-propyl)-piperidin-4-yl]-benzamide] | 270 | 10 | −7.37 | −2.28 | 14 | 103 | –
CN(C)C[C@H]1CN(CCCc2ccc(F)cc2Cl)CC[C@]1(O)c1cccc(C(N)=O)c1 [(23a), 3-((3S,4R)-1-(3-(2-Chloro-4-fluorophenyl)propyl)-3-((dimethylamino)methyl)-4-hydroxypiperidin-4-yl)benzamide] | – | – | – | – | – | – | O2 partial pressure ([4]; 4.5 mg/kg): the same O2 partial pressure as vehicle; O2 partial pressure ([4]; 18 mg/kg): the same O2 partial pressure as vehicle; Dose to reach the ED80 of morphine in rat tail flick (tail flick response): 4.5 mg/kg; Preference for drug chamber over saline chamber (place preference; 18 mg/kg): no preference for the (23a) chamber over the saline chamber; Reduction in transit relative to vehicle (intestinal transit; 4.5 mg/kg): no significant reduction in transit; Reduction in transit relative to vehicle (intestinal transit; 18 mg/kg): small reduction in transit; Sedation, accelerating RotaRod (sedation; 4.5 mg/kg): no sedation; Sedation, accelerating RotaRod (sedation; 18 mg/kg): no sedation
CN(C)C[C@H]1CN(CCc2ccsc2)CC[C@]1(O)c1cccc(C(N)=O)c1 [(41a), 3-((3S,4R)-3-((Dimethylamino)methyl)-4-hydroxy-1-(2-(thiophen-3-yl)ethyl)piperidin-4-yl)benzamide] | – | – | – | – | – | – | O2 partial pressure ([4]; 5 mg/kg): the same O2 partial pressure as vehicle; O2 partial pressure ([4]; 20 mg/kg): the same O2 partial pressure as vehicle; Dose to reach the ED80 of morphine in rat tail flick (tail flick response): 5 mg/kg; Preference for drug chamber over saline chamber (place preference; 20 mg/kg): no preference for the (41a) chamber over the saline chamber; Reduction in transit relative to vehicle (intestinal transit; 5 mg/kg): no significant reduction in transit; Reduction in transit relative to vehicle (intestinal transit; 20 mg/kg): no significant reduction in transit; Sedation, accelerating RotaRod (sedation; 5 mg/kg): no sedation; Sedation, accelerating RotaRod (sedation; 20 mg/kg): no sedation
C[C@@H](NC(=O)[C@@H](N)Cc1ccc(O)cc1)C(=O)NCC(=O)N(C)[C@@H](Cc1ccccc1)C(=O)NCCO [DAMGO, H-Tyr-D-Ala-Gly-NMe-Phe-Gly-OH, reference compound] | – | – | – | – | 98 | – | –
COc1ccsc1CNCC[C@@]1(c2ccccn2)CCOC2(CCCC2)C1 [oliceridine, N-[(3-methoxythiophen-2-yl)methyl]-2-[(9R)-9-pyridin-2-yl-6-oxaspiro[4.5]decan-9-yl]ethanamine] | – | – | – | – | – | – | β-arrestin recruitment Emax (MOR [5]): 14%; On-target adverse effects (such as nausea, and decrease in respiratory drive) [6]: decreased on-target adverse effects; Level of analgesia [7]: higher level of analgesia; G-protein signaling Emax (MOR [8]): 83%

— US10836728B2, “Substituted 3-dialkylaminomethyl-piperidin-4-yl-benzamides and methods of making and using same” (MEBIAS DISCOVERY, INC., priority 2017, dated 2020)
